Measurements as given in PMC5779714, “Metallochaperone UreG serves as a new target for design of urease inhibitor: A novel strategy for development of antimicrobials” (PLoS Biology, 2018).
Where “and” joins values, the source holds several entries; their conditions need not be identical. Identical values can stand only once. Like-named read-outs stand apart in the source and are kept apart here.

Assays:
[1] = target: urease from jack bean, P. mirabilis, and K. aerogenes; conditions: competitive inhibitor; cited from earlier work
H. pylori = assay: Growth of H. pylori in neutral and acidic brucella broth (OD600); format: cell-based
urease [2] = target: T1, urease (Pseudomonas aeruginosa, UniProt Q9HUU5+Q9HUU6+Q9HUU8); assay: Urease activity of extracted P. aeruginosa urease (in vitro); format: biochemical
T1 construct: endogenous in cells

H. pylori urease [3] = target: T2, H. pylori urease (Helicobacter pylori, UniProt P14916+P69996); format: biochemical; parameters: endogenous in cells; host or cells: H. pylori strain 26695 or a clinical isolate
Target sequence in this assay (P69996 whole entry): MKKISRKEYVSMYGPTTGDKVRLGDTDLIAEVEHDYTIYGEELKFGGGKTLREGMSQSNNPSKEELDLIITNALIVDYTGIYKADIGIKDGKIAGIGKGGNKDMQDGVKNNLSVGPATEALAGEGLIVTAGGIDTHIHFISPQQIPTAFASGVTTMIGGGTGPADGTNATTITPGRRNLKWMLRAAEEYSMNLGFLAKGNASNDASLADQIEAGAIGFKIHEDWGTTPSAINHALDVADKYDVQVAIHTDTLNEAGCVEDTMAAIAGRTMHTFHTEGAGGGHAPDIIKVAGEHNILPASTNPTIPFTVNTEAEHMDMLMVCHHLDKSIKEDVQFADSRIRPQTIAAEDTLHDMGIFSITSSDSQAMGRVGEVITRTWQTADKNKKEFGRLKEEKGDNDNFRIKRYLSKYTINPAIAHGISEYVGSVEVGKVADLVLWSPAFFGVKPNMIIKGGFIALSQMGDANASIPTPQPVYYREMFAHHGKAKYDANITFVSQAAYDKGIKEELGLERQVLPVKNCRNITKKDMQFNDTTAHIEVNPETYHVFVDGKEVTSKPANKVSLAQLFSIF
Target sequence in this assay (P14916 whole entry): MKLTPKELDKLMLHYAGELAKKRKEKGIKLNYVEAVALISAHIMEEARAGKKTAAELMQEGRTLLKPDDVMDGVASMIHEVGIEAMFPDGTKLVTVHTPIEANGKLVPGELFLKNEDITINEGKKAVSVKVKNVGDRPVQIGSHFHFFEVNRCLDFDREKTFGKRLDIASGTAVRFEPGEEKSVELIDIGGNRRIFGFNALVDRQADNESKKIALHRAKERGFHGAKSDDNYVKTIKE

urease [4] = test system: urease
urease [5] = test system: urease; remark: listed apart in the source
H. pylori urease [6] = target: T2, H. pylori urease; assay: cell-based; format: cell-based
Target sequence in this assay (P14916 whole entry, looked up): as the sequence (P14916 whole entry) above
Target sequence in this assay (P69996 whole entry, looked up): as the sequence (P69996 whole entry) above

UreG [7] = target: T3, UreG (Helicobacter pylori, UniProt Q09066)
Description: (§1) A Malachite Green Phosphate Assay Kit (Abcam) was utilized to quantify the hydrolysis of GTP by UreG under various conditions. […] GTPase activity of UreG was triggered through the addition of 10 mM KHCO3, after which the reaction was incubated at 37°C for 30 min; then, the free phosphate from hydrolysis of GTP was determined. […] To eliminate the potential effect of small compounds on malachite green assay, the assay included a subtraction of the absorbance of reaction with the same amounts of compounds but without UreG enzyme for each reading.
(PNG) Click here for additional data file.

urease [8] = test system: urease; remark: listed apart in the source
Target sequence in this assay (P17088 whole entry): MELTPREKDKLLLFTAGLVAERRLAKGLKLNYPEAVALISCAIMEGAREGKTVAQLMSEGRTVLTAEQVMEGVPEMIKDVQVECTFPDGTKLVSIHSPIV
Target sequence in this assay (P17087 whole entry, further chain): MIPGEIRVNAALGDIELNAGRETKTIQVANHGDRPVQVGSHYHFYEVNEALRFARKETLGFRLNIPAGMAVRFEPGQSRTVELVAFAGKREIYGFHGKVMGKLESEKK
Target sequence in this assay (P17086 whole entry, further chain): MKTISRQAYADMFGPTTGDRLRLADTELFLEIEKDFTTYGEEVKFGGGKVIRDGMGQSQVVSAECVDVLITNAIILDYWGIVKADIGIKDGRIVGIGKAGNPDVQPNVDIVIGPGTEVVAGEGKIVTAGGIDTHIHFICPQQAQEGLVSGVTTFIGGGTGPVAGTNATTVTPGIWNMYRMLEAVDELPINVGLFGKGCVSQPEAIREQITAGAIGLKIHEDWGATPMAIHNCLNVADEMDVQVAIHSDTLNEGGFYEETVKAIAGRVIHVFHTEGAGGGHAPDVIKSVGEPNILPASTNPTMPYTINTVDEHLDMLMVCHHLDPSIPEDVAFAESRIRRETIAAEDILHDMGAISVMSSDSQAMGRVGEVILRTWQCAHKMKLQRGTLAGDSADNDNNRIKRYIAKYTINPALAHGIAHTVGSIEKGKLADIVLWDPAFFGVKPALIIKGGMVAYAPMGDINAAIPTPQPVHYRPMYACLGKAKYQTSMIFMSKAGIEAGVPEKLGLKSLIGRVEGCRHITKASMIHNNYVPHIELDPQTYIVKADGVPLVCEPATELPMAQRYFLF

urease [9] = target: T4, urease (Proteus mirabilis, UniProt P17086+P17087+P17088); format: biochemical
T4 construct: endogenous in cells

urease [10] = test system: urease; remark: listed apart in the source
urease [11] = test system: urease; remark: listed apart in the source
urease [12] = test system: urease; remark: listed apart in the source
[13] = test system: AGS cells with H. pylori infection; assay: AGS cells with H. pylori infection, inhibitors administrated to the AGS cells (S20 Fig); format: cell-based, human; conditions: 10 μM administrated to AGS cells with H. pylori infection
Source text: As expected, low viability of AGS with the supplement of cmpd4 and cmpd8 was observed due to the toxicity of small compounds to mammalian cells. […] (PNG) Click here for additional data file.

[14] = test system: AGS cells exposed to H. pylori; assay: Cell infection model: AGS cells exposed to H. pylori pre-cultured with inhibitors; format: cell-based, human; conditions: H. pylori pre-cultured with 10 μM inhibitor 24 h; MOI 20; 24 h infection; Hp alone 28.8%
urease [15] = test system: urease; remark: listed apart in the source
urease [16] = test system: urease; remark: listed apart in the source
Target sequence in this assay (Q9HUU5 whole entry): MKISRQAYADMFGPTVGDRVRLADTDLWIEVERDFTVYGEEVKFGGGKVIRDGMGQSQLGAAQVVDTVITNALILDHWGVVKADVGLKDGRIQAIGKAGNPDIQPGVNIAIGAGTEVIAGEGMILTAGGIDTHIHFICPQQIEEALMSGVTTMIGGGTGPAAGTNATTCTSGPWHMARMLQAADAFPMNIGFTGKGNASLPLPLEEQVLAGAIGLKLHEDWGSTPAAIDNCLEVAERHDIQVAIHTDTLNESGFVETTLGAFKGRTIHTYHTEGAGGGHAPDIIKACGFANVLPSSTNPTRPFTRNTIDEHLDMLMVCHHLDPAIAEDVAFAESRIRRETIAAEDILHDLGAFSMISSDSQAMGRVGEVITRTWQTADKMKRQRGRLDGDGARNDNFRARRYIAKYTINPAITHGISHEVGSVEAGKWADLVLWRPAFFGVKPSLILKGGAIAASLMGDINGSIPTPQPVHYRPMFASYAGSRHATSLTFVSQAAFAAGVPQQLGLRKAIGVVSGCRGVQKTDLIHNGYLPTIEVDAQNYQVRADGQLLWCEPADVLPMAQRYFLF
Target sequence in this assay (Q9HUU6 whole entry, further chain): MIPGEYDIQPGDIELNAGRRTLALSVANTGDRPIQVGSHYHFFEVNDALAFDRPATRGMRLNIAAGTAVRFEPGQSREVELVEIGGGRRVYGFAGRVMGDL
Target sequence in this assay (Q9HUU8 whole entry, further chain): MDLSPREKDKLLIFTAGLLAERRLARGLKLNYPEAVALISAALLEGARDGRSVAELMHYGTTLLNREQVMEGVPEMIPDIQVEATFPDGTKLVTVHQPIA

UreG [17] = target: T3, UreG; assay: biochemical; format: biochemical, H. pylori
Description: as §1

urease [18] = assay: Phenol-hypochlorite urease assay, lysate of E. coli with urease gene cluster excluding ureG (pHP8080ΔG) supplemented with metal-treated UreG
[19] = parameters: method as in PMID 22179820; conditions: cited from earlier work
[20] = target: the molecule itself; assay: SEC; Superdex 200 10/300 GL; Ni-loaded UreG (UreG with NiSO4 1x, GTP 10x, MgSO4 1 mM) with 1 mM KHCO3; run with or without two molar equivalents of Bi(III) (as BiNTA), which lowered the dimer peak and gave a high molecular weight oligomer
[21] = target: the molecule itself; assay: SEC; gel filtration of apo-UreE alone, with or without three molar equivalents of Bi(III) (little effect on the dimer)
[22] = increasing amounts of CBS during bacterial growth

T1 sequence (Q9HUU6 whole entry): as the sequence (Q9HUU6 whole entry, further chain) above
T1 sequence (Q9HUU5 whole entry): as the sequence (Q9HUU5 whole entry) above
T1 sequence (Q9HUU8 whole entry): as the sequence (Q9HUU8 whole entry, further chain) above
T4 sequence (P17087 whole entry): as the sequence (P17087 whole entry, further chain) above
T4 sequence (P17088 whole entry): as the sequence (P17088 whole entry) above
T4 sequence (P17086 whole entry): as the sequence (P17086 whole entry, further chain) above

OB(O)O [boric acid]
Ki [1]: mM levels

colloidal bismuth subcitrate [CBS]
OD600(pH5) (H. pylori; acidic brucella broth pH 5.0, 24 h, control 0.93): 0.23 and 0.239
OD600 (pH7) (H. pylori; neutral medium, 24 h, control 0.18): 0.127
Normalized urease activity(%) (in vitro) (urease [2]; CBS 2.0 μM): 102.2%
Normalized urease activity(%) (in vitro) (urease [2]; CBS 5.0 μM): 93.5%
Normalized urease activity(%) (in vitro) (urease [2]; CBS 10.0 μM): 100.7%
Normalized urease activity(%) (in vitro) (urease [2]; CBS 20.0 μM): 99.1%
Normalized urease activity(%) (in vitro) (urease [2]; CBS 50.0 μM): 95.8%
Normalized urease activity(%) (in vitro) (urease [2]; CBS 100.0 μM): 101.3%
Normalized urease activity(%) (in vitro) (urease [2]; CBS 200.0 μM): 99.8%
Normalized urease activity(%) (in vitro) (H. pylori urease [3]; CBS 2.0 μM): 102.1%
Normalized urease activity(%) (in vitro) (H. pylori urease [3]; CBS 5.0 μM): 93.2%
Normalized urease activity(%) (in vitro) (H. pylori urease [3]; CBS 10.0 μM): 103.8%
Normalized urease activity(%) (in vitro) (H. pylori urease [3]; CBS 20.0 μM): 86.7%
Normalized urease activity(%) (in vitro) (H. pylori urease [3]; CBS 30.0 μM): 92.9%
Normalized urease activity(%) (in vitro) (H. pylori urease [3]; CBS 50.0 μM): 109.1%
Normalized urease activity(%) (in vitro) (H. pylori urease [3]; CBS 100.0 μM): 102.9%
Normalized urease activity(%) (in vitro) (H. pylori urease [3]; CBS 200.0 μM): 94.9%
inhibitory effect on extracted H. pylori urease (H. pylori urease [3]; CBS up to 400 μM): little inhibitory effect
Normalized urease activity(%) (in vitro) (urease [4]; CBS 25.0 μM): 109.8%
Normalized urease activity(%) (in vitro) (urease [4]; CBS 50.0 μM): 113.4%
Normalized urease activity(%) (in vitro) (urease [4]; CBS 100.0 μM): 105.1%
Normalized urease activity(%) (in vitro) (urease [4]; CBS 200.0 μM): 103.9%
Normalized urease activity(%) (in vivo) (urease [5]; CBS 1.5 μM): 92.5%
Normalized urease activity(%) (in vivo) (urease [5]; CBS 3.0 μM): 74.5%
Normalized urease activity(%) (in vivo) (urease [5]; CBS 6.0 μM): 62.3%
Normalized urease activity(%) (in vivo) (urease [5]; CBS 12.0 μM): 64.2%
Normalized urease activity(%) (in vivo) (urease [5]; CBS 25.0 μM): 41.5%
Normalized urease activity(%) (urease [5]; log(CBS[μM]) 0.176091): 92.4528%
Normalized urease activity(%) (urease [5]; log(CBS[μM]) 0.477121): 74.5283%
Normalized urease activity(%) (urease [5]; log(CBS[μM]) 1.39794): 41.5094%
Normalized urease activity(%) (urease [5]; log(CBS[μM]) 3): 16.0377%
Normalized urease activity(%) (urease [5]; log(CBS[μM]) 3.30103): 13.2075%
Normalized urease activity(%) (urease [5]; log(CBS[μM]) 3.60206): 20.7547%
Normalized urease activity(%) (in vivo) (H. pylori urease [6]; CBS 2.0 μM): 89.4%
Normalized urease activity(%) (in vivo) (H. pylori urease [6]; CBS 5.0 μM): 57.6%
Normalized urease activity(%) (in vivo) (H. pylori urease [6]; CBS 10.0 μM): 35.6%
Normalized urease activity(%) (in vivo) (H. pylori urease [6]; CBS 20.0 μM): 10.2%
drop in urease activity (H. pylori urease [6]; CBS 20 μM in culture medium): ca. 90%
Normalized urease activity(%) (H. pylori urease [6]; log(CBS[μM]) 0): 94.7245%
Normalized urease activity(%) (H. pylori urease [6]; log(CBS[μM]) 0.30103): 89.449%
Normalized urease activity(%) (H. pylori urease [6]; log(CBS[μM]) 0.69897): 57.604%
Normalized urease activity(%) (H. pylori urease [6]; log(CBS[μM]) 0.845098): 46.6188%
Normalized urease activity(%) (H. pylori urease [6]; log(CBS[μM]) 1): 35.6336%
Normalized urease activity(%) (H. pylori urease [6]; log(CBS[μM]) 1.17609): 22.938%
Normalized urease activity(%) (H. pylori urease [6]; log(CBS[μM]) 1.30103): 10.2424%
Normalized urease activity(%) (H. pylori urease [6]; log(CBS[μM]) 1.39794): 10.165%
Normalized urease activity(%) (H. pylori urease [6]; log(CBS[μM]) 1.47712): 10.0876%
Normalized GTPase activity(%) (UreG [7]; CBS 20 μM): 50.4%
Normalized GTPase activity(%) (UreG [7]; CBS 50 μM): 22.6%
Normalized GTPase activity(%) (UreG [7]; CBS 100 μM): 35.8%
Normalized GTPase activity(%) (UreG [7]; CBS 200 μM): 20.4%
GTPase activity compared with that without CBS treatment (UreG [7]; [22]): approximately 20%
Normalized urease activity(%) (urease [8]; log(CBS[μM]) 1.29073): 42.0322%
Normalized urease activity(%) (urease [8]; log(CBS[μM]) 1.59176): 39.1227%
Normalized urease activity(%) (urease [8]; log(CBS[μM]) 1.89279): 25.3581%
Normalized urease activity(%) (urease [8]; log(CBS[μM]) 2.19382): 25.0224%
Normalized urease activity(%) (in vitro) (urease [9]; CBS 2.0 μM): 105.5%
Normalized urease activity(%) (in vitro) (urease [9]; CBS 5.0 μM): 122.1%
Normalized urease activity(%) (in vitro) (urease [9]; CBS 10.0 μM): 103.7%
Normalized urease activity(%) (in vitro) (urease [9]; CBS 20.0 μM): 121.2%
Normalized urease activity(%) (in vitro) (urease [9]; CBS 50.0 μM): 96.7%
Normalized urease activity(%) (in vitro) (urease [9]; CBS 100.0 μM): 105.5%
Normalized urease activity(%) (in vitro) (urease [9]; CBS 200.0 μM): 111.5%
Normalized urease activity(%) (in vitro) (urease [10]; CBS 2.0 μM): 87.7%
Normalized urease activity(%) (in vitro) (urease [10]; CBS 5.0 μM): 84.1%
Normalized urease activity(%) (in vitro) (urease [10]; CBS 10.0 μM): 87.2%
Normalized urease activity(%) (in vitro) (urease [10]; CBS 50.0 μM): 91.4%
Normalized urease activity(%) (in vitro) (urease [10]; CBS 100.0 μM): 87.4%
Normalized urease activity(%) (in vitro) (urease [10]; CBS 200.0 μM): 86.8%
Normalized urease activity(%) (in vitro) (urease [11]; CBS 2.0 μM): 117.5%
Normalized urease activity(%) (in vitro) (urease [11]; CBS 5.0 μM): 100.8%
Normalized urease activity(%) (in vitro) (urease [11]; CBS 10.0 μM): 95.4%
Normalized urease activity(%) (in vitro) (urease [11]; CBS 20.0 μM): 96.5%
Normalized urease activity(%) (in vitro) (urease [11]; CBS 50.0 μM): 100.0%
Normalized urease activity(%) (in vitro) (urease [11]; CBS 100.0 μM): 106.8%
Normalized urease activity(%) (in vitro) (urease [11]; CBS 200.0 μM): 98.8%
Normalized urease activity(%) (in vitro) (urease [12]; CBS 25.0 μM): 111.2%
Normalized urease activity(%) (in vitro) (urease [12]; CBS 50.0 μM): 127.8%
Normalized urease activity(%) (in vitro) (urease [12]; CBS 100.0 μM): 125.1%
Normalized urease activity(%) (in vitro) (urease [12]; CBS 200.0 μM): 113.5%
Ammonia in medium [13]: 0.6839 mM
Normalized cell survival (%) [13]: 78.3784%
Normalized cell survival (%) [14]: 65.8% ± 9.9% and 65.7658%
Normalized urease activity(%) (urease [15]; CBS 20 μM): 63.4%
Normalized urease activity(%) (urease [15]; CBS 50 μM): 37.9%
Normalized urease activity(%) (urease [15]; CBS 100 μM): 37.9%
Normalized urease activity(%) (urease [15]; CBS 200 μM): 25.6%
ureolytic activity compared with that without CBS treatment (urease [15]; [22]): approximately 20%
Normalized urease activity(%) (urease [16]; log(CBS[μM]) 0.69897): 76.4151%
Normalized urease activity(%) (urease [16]; log(CBS[μM]) 1): 79.2453%
Normalized urease activity(%) (urease [16]; log(CBS[μM]) 1.30103): 68.1604%
Normalized urease activity(%) (urease [16]; log(CBS[μM]) 1.79588): 36.5566%

[Bi+3] [Bi(III), reference compound]
Normalized GTPase activity(%) (UreG [17]; Ni-UreG+Bix1): 29.0%
Normalized GTPase activity(%) (UreG [17]; Ni-UreG+Bix2): 0.8%
Normalized GTPase activity(%) (UreG [17]; Ni-UreG+Bix3): 1.7%
inhibition of GTPase enzyme activity (UreG [17]; further addition of Bi(III) to Ni-UreG): complete inhibition
Normalized urease activity(%) (urease [18]; Ni-UreG+Bix1, incubation 40 min): 47.6%
Normalized urease activity(%) (urease [18]; Ni-UreG+Bix2, incubation 40 min): 9.3%
Normalized urease activity(%) (urease [18]; Ni-UreG+Bix3, incubation 40 min): 5.8%

O=C([O-])CN(CC(=O)[O-])CC(=O)[O-].[Bi+3] [BiNTA, Bi nitrilotriacetic acid]
log Ka of Bi-NTA [19]: 17.55

B1: Helicobacter pylori urease accessory protein UreG (natural protein)
chain: MVKIGVCGPVGSGKTALIEALTRHMSKDYDMAVITNDIYTKEDAEFMCKNSVMPRERIIGVETGGCPHTAIREDASMNLEAVEEMHGRFPNLELLLIESGGDNLSATFNPELADFTIFVIDVAEGDKIPRKGGPGITRSDLLVINKIDLAPYVGADLKVMERDSKKMRGEKPFIFTNIRAKEGLDDVIAWIKRNALLED
notes: also called HpUreG; apo-UreG; source: E. coli BL21(DE3), purified (HisTrap Ni-NTA, thrombin cleavage, EDTA, Superdex 75)
stoichiometry N [20]: 2

B2: Helicobacter pylori urease accessory protein UreE (natural protein)
chain: MIIERLVGNLRDLNPLDFSVDHVDLEWFETRKKIARFKTRQGKDIAIRLKDAPKLGLSQGDILFKEEKEIIAVNILDSEVIHIQAKSVAEVAKICYEIGNRHAALYYGESQFEFKTPFEKPTLALLEKLGVQNRVLSSKLDSKERLTVSMPHSEPNFKVSLASDFKVVVK
notes: also called apo-UreE
stoichiometry N [21]: 2
